For 6 compounds, inhibition results are on record in patent US20080193411A1, “Anti-viral Compounds” (Genelabs Technologies, Inc., priority 2006, published 2008).

Molecules are shown by their SMILES.

The subject of the test is HCV replication. Kind of test: HCV replicon assay (luciferase), ET (Huh-lucubineo-ET) cell line. The format is cell-based. Particulars: Hepatitis C virus; tested at 10 μM; ET (Huh-lucubineo-ET) replicon cells; luciferase activity 48-72 hours; relative to no compound control. As for the experimental part: A cell line, ET (Huh-lucubineo-ET) was used for screening of compounds of the present invention for inhibiting HCV replication. The ET cell line was stably transfected with RNA transcripts harboring a I389luc-ubi-neo/NS3-3′/ET; replicon with firefly luciferase-ubiquitin-neomycin phosphotransferase fusion protein and EMCV-IRES driven NS3-5B polyprotein containing the cell culture adaptive mutations (E1202G; T1280I; K1846T) (Krieger at al, 2001 and unpublished). The ET cells were grown in DMEM (Dulbeco's Modified Eagle's Medium), supplemented with 10% fetal calf serum, 2 mM Glutamine, Penicillin (100 IU/mL)/Streptomycin (100 μg/mL), 1× nonessential amino acids, and 250 μg/mL G418 (“Geneticin”). They were all available through Life Technologies (Bethesda, Md.). The cells were plated at 0.5-1.0×10^4 cells/well in the 96 well plates and incubated for 24 hrs before adding testing compounds. Then the compounds were added to the cells to achieve a final concentration of 0.1 nM to 50 μM and a final DMSO concentration of 0.5%. Luciferase activity were measured 48-72 hours later by adding a lysis buffer and the substrate (Catalog number Glo-lysis buffer E2661 and Bright-Glo luciferase system E2620 Promega, Madison, Wis.). Cells should not be too confluent during the assay. Percent inhibition of replication was plotted relative to no compound control. Under the same condition, cytotoxicity of the compounds was determined using cell proliferation reagent, WST-1 (Roche, Germany). The compounds showing antiviral activities, but no significant cytotoxicities were chosen to determine EC50 and TC50. For these determinations, a 10 point 2-fold serial dilution for each compound was used, which spans a concentration range of 1000 fold. EC50 and similarly TC50 values were calculated by fitting % inhibition at each concentration to the following equation:
% inhibition=100%/[(IC50/[I])^b+1]
where b is Hill's coefficient.
In some preferred embodiments compounds of Formula I will have a % inhibition of at least 20% when tested at 10 μM. In other embodiments the compounds of Formula I will have a % inhibition of at least 50% when tested at 10 μM.
`N#Cc1ccc(-c2ccc3nc([C@@H]4CCCN4C(=O)OCc4ccccc4)[nH]c3c2)cc1` [Compound 4049, (S)-2-[6-(4-Cyano-phenyl)-1H-benzoimidazol-2-yl]-pyrrolidine-1-carboxylic acid benzyl ester] yielded an inhibition at 10 µM of 20%.
`Cc1nc2cc(-c3ccc4nc([C@@H]5CCCN5C(=O)OCc5ccccc5)[nH]c4c3)ccc2s1` [Compound 4051, (S)-2-[6-(2-Methyl-benzothiazol-5-yl)-1H-benzoimidazol-2-yl]-pyrrolidine-1-carboxylic acid benzyl ester] came in with an inhibition at 10 µM of 32.8%.
`O=C(OCc1ccccc1)N1CCC[C@H]1c1nc2ccc(-c3cccc(O)c3)cc2[nH]1` [Compound 4054, (S)-2-[6-(3-Hydroxy-phenyl)-1H-benzoimidazol-2-yl]-pyrrolidine-1-carboxylic acid benzyl ester] displayed an inhibition at 10 µM of 99.3%.
`O=C(NC1CC1)c1ccc(-c2csc(NC[C@@H]3CCCN3C(=O)OCc3ccccc3)n2)cc1` [Compound 4055, (S)-2-{[4-(4-Cyclopropylcarbamoyl-phenyl)-thiazol-2-ylamino]-methyl}-pyrrolidine-1-carboxylic acid benzyl ester] came in with an inhibition at 10 µM of 44%.
The same measure for `O=C(NCc1cccc(-c2ccc3nc([C@@H]4CCCN4C(=O)OCc4ccccc4)[nH]c3c2)c1)C1CC1` [Compound 4057, (S)-2-(6-{3-[(Cyclopropanecarbonyl-amino)-methyl]-phenyl}-1H-benzoimidazol-2-yl)-pyrrolidine-1-carboxylic acid benzyl ester]: 99.4%; for `O=C(NC1CC1)c1ccc(-c2cccc(C#C[C@@H]3CCCN3C(=O)OCc3ccccc3)c2)cc1` [Compound 4060, (S)-2-(4′-Cyclopropylcarbamoyl-biphenyl-3-ylethynyl)-pyrrolidine-1-carboxylic acid benzyl ester]: 48.4%.

Broadly, the inhibition is the relative decrease from the control value, in per cent. A low value points to a response near the control.
